Assay results from US5646027A, “Process for the production of gelatinase catalytic domain protein” (Warner-Lambert Company, priority 1994, dated 1997).
pIC50: −log10 of the molar value.

Tests used:
[1] = molecular target: T1, human 72 kDa gelatinase catalytic domain (GCD), reconstructed 19 kDa protein lacking propeptide, C-terminal domain and fibronectin-like insert, Seq ID No: 1 (Homo sapiens, UniProt P08253, DEL214-387); assay: Inhibition of GCD cleavage of thiopeptolide by amino acid derivatives; assay type: biochemical; details: for GCD IC50: 17.3 nM GCD, 100 μM thiopeptolide, 10 mM CaCl2, 10 μM ZnCl2, MOPS pH 7.0; for GCD Ki: derived from IC50 by Ki=IC50/(1+[substrate]/Km), substrate 100 μM, Km 134 μM
T1 construct: starting at Ala at position -2 and ending at Ile at 168; made in house; host or cells: E. coli BL21(DE3)/pLysS
T1 sequence (P08253 with tags, fused parts or gaps DEL214-387): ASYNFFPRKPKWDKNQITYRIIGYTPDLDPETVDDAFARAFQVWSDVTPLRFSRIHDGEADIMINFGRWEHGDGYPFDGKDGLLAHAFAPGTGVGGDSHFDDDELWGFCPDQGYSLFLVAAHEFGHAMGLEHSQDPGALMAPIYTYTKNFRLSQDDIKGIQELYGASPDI
Method: The 100 μL assay mixture typically contained 50 mM MOPS (pH 7.0), 1 mM DTNB, 100 μM thiopeptolide, 10 mM CaCl2, 10 μM ZnCl2, and the enzyme.
The compounds tested for GCD inhibition were obtained from Bachem. […] Inhibition was initially tested at inhibitor concentrations of 100 and 500 μM. […] The determinations were repeated three times.

[2] = molecular target: stromelysin catalytic domain (SCD), C-terminally truncated human stromelysin, Seq ID No: 2 (Homo sapiens, UniProt P08254); details: taken from Ye Q. Z., et al., J. Med. Chem., 1994;37:206-209; cited from earlier work
Chain of stromelysin catalytic domain (SCD), C-terminally truncated human stromelysin, Seq ID No: 2 (P08254 100-273): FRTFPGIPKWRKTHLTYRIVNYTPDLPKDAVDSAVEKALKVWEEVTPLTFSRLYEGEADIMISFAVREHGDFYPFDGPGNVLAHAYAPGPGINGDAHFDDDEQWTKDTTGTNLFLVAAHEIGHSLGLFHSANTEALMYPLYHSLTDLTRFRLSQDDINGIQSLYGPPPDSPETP

[3] = molecular target: fluorogenic peptide Dnp-Pro-Leu-Gly-Leu-Trp-Ala-D-Arg-NH2
[4] = molecular target: fluorogenic peptide Mca-Pro-Leu-Gly-Leu-Dpa-Ala-Arg-NH2
[5] = molecular target: thiopeptolide Ac-Pro-Leu-Gly-thioester-Leu-Leu-Gly-OEt

Chain of stromelysin catalytic domain (SCD), C-terminally truncated stromelysin (enzyme) (P08254 100-273 limits assumed): as the sequence (P08254 100-273) above

Row | GCD IC50 [1] [µM] | GCD Ki [1] [µM] | Compound | pIC50 [2] | further results
1 | 57 ± 4 | 33 | CC(C)(C)OC(=O)N[C@@H](Cc1c[nH]c2ccccc12)C(=O)O [Compound 5, Boc-L-Trp-OH] | – | –
2 | > 500 | – | CC(C)(C)OC(=O)N[C@H](Cc1c[nH]c2ccccc12)C(=O)O [Compound 6, Boc-D-Trp-OH] | 3.30 to 4.00 | –
3 | 100 to 500 | – | O=C(N[C@H](Cc1ccccc1)C(=O)O)OCc1ccccc1 [Compound 10, Cbz-D-Phe-OH] | < 3.30 | –
4 | – | – | human 72 kDa gelatinase catalytic domain protein (GCD), without propeptide, C-terminal domain and fibronectin-like insert (enzyme) | – | Catalytic efficiency kcat/Km in cleaving the fluorogenic peptide [3]: 112000 M⁻¹ s⁻¹; Catalytic efficiency kcat/Km in cleaving the fluorogenic peptide [4]: 184000 M⁻¹ s⁻¹; Catalytic efficiency kcat/Km in cleaving the thiopeptolide [5]: 119000 M⁻¹ s⁻¹
5 | – | – | stromelysin catalytic domain (SCD), C-terminally truncated stromelysin (enzyme) | – | Catalytic efficiency kcat/Km in cleaving the fluorogenic peptide [3]: 13700 M⁻¹ s⁻¹; Catalytic efficiency kcat/Km in cleaving the fluorogenic peptide [4]: 10000 M⁻¹ s⁻¹; Catalytic efficiency kcat/Km in cleaving the thiopeptolide [5]: 7840 M⁻¹ s⁻¹
6 | 10.4 ± 0.4 | 6.0 | O=C(N[C@@H](Cc1ccc(O)cc1)C(=O)O)OCc1ccccc1 [Compound 7, Cbz-L-Tyr-OH] | – | –
7 | > 500 | – | O=C(N[C@H](Cc1ccc(O)cc1)C(=O)O)OCc1ccccc1 [Compound 8, Cbz-D-Tyr-OH] | – | –
8 | 21 ± 1 | 12 | O=C(N[C@@H](Cc1ccccc1)C(=O)O)OCc1ccccc1 [Compound 9, Cbz-L-Phe-OH] | – | –

Row | Compound | GCD IC50 [1] [µM] | GCD Ki [1] [µM] | pIC50 [2] | further results
9 | N[C@H](Cc1c[nH]c2ccccc12)C(=O)O [Compound 4, H-D-Trp-OH] | > 500 | – | < 3.30 | –
10 | N[C@@H](Cc1c[nH]c2ccccc12)C(=O)O [Compound 3, H-L-Trp-OH] | > 500 | – | < 3.30 | GCD inhibition (in words) ([1]; tested at 100 and 500 μM): not active
